Like-named read-outs stand apart in the source and are kept apart here.
What was measured:
[1] = molecular target: T1, high affinity CNS nicotinic receptors (Rattus norvegicus, UniProt P09483+P12390); assay: biochemical; format: binding, Rats (Sprague-Dawley)
T1 construct: Brain membrane preparations were obtained from brain tissue of either males or females; from tissue; host or cells: rat (Sprague-Dawley) brain without cerebellum, membrane preparation

[2] = test system: synaptosomes from the striatal area of rat brain; assay: [3H]-Dopamine release from striatal synaptosomes (continuous perfusion); format: cell-based, Sprague-Dawley rats; settings: for Emax: Rattus norvegicus; for EC50: rat striatal synaptosomes
Protocol: Dopamine release was measured by preparing synaptosomes from the striatal area of rat brain obtained from Sprague-Dawley rats generally according to the procedures set forth by Nagy et al., J. Neurochem., Vol. 43, pp. 1114-1123 (1984). Striata from 4 rats were homogenized in 2 ml of 0.32M sucrose buffered with 5 mM HEPES (pH 7.5), using a glass-Teflon tissue grinder. The homogenate was diluted to 5 ml with additional homogenization solution and centrifuged at 1,000 x g for 10 min. This procedure was repeated on the new pellet and the resulting supernatant was centrifuged at 12,000 x g for 20 min. A 3 layer discontinuous Percoll gradient consisting of 16 percent, 10 percent and 7.5 percent Percoll in HEPES-buffered sucrose was made with the final pellet dispersed in the top layer. After centrifugation at 15,000 x g for 20 min., the synaptosomes were recovered above the 16 percent layer with a Pasteur pipette, diluted with 8 ml of perfusion buffer (128 mM NaCl, 2.4 mM KCl, 3.2 Mm CaCl2, 1.2 mM KH2PO4, 1.2 mM MgSO4, 25 mM HEPES pH 7.4, 10 mM dextrose, 1 mM ascorbate, 0.01 mM pargyline), and centrifuged at 15,000 x g for 20 min. The new pellet was collected and re-suspended in perfusion buffer. The synaptosome suspension was incubated for 10 min. at 37°C. [^3H]-Dopamine (Amersham, 40-60 Ci/mmol) was added to the suspension to give a final concentration of 0.1 uM, and the suspension was incubated for another 5 min. Using this method, 30 to 90 percent of the dopamine was taken up into the synaptosomes, as determined by scintillation counting following filtration through glass fiber filters soaked with 0.5 percent polyethyleneimine. A continuous perfusion system was used to monitor release following exposure to each ligand. Synaptosomes were loaded onto glass fiber filters (Gelman type A/E). Perfusion buffer was dripped onto the filters (0.2-0.3 ml/min.) and pulled through the filters with a peristaltic pump. Synaptosomes were washed with perfusion buffer for a minimum of 20 min. before addition of the ligand. After the addition of 0.2 ml of a solution containing various concentrations of ligand, the perfusate was collected into scintillation vials at 1 min. intervals and the dopamine released was quantified by scintillation counting. Peaks of radioactivity released above background were summed and the average basal release during that time was subtracted from the total.

[3] = molecular target: T2, muscle-like nicotinic receptors (Homo sapiens, UniProt P02708+P07510+Q07001); assay: cell-based; format: cell-based; settings: for Emax: TE671/RD, read-out: Muscle Effect
T2 construct: Intact cells on dishes were used for functional studies; endogenous in cells; host or cells: TE671/RD human embryonal rhabdomyosarcoma cells

[4] = molecular target: T3, ganglionic-type neuronal nicotinic receptors (Rattus norvegicus, UniProt P04757+P12392); assay: cell-based; settings: for Emax: PC-12, read-out: Ganglion Effect
T3 construct: Intact cells on dishes were used for functional studies; endogenous in cells; host or cells: PC12 rat pheochromocytoma cells
T3 sequence (P04757 26-499): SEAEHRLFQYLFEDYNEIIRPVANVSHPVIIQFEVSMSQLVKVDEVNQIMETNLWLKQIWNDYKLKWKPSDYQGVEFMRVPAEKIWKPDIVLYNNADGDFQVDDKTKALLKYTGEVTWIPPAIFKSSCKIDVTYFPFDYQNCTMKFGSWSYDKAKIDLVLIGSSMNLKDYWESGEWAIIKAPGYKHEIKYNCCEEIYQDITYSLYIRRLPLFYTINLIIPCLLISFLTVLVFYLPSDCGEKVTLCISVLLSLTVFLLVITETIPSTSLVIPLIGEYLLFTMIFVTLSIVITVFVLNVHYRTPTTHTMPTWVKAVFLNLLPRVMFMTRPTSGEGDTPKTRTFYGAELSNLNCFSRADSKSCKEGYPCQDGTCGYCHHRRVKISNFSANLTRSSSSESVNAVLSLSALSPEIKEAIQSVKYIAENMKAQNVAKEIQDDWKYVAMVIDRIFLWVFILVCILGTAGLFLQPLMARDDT
T3 sequence (P12392 21-495): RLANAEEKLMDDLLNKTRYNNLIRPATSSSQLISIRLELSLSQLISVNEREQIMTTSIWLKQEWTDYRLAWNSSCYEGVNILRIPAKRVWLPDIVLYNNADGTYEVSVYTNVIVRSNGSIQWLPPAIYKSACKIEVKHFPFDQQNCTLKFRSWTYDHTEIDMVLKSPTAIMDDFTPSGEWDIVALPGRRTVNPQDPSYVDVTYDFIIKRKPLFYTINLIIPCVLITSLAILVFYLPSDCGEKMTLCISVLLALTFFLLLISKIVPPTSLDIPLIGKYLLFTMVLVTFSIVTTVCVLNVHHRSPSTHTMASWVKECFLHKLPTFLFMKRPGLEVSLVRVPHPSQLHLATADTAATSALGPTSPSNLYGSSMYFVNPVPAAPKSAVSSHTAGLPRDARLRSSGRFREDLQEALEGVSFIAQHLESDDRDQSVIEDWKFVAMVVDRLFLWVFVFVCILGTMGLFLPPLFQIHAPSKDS

T2 sequence (P02708 21-457): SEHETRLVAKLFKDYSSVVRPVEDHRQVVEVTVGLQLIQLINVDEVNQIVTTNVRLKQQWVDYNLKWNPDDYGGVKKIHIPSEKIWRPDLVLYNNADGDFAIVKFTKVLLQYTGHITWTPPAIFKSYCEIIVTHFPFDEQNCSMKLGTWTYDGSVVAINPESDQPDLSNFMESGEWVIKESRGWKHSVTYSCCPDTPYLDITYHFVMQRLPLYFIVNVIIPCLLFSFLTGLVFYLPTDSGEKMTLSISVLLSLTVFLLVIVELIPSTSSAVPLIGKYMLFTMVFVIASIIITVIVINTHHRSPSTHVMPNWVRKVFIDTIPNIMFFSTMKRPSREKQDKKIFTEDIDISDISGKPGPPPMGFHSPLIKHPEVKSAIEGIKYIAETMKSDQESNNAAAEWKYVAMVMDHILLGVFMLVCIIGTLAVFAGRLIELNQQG
T2 sequence (P07510 23-517): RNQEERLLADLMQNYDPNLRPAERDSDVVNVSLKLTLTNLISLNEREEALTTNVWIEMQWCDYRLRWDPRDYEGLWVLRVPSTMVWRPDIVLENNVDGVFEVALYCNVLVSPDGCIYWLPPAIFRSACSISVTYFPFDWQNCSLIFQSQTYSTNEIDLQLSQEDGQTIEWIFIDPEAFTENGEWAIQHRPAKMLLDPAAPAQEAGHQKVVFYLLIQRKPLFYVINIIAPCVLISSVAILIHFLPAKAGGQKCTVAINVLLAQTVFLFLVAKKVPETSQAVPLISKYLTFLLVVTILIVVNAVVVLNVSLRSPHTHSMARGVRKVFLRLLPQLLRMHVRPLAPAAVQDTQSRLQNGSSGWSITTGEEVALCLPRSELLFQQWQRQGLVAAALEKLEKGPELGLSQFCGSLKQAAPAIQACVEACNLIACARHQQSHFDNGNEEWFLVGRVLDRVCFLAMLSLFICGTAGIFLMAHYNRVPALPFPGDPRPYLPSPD
T2 sequence (P11230 24-501, further chain): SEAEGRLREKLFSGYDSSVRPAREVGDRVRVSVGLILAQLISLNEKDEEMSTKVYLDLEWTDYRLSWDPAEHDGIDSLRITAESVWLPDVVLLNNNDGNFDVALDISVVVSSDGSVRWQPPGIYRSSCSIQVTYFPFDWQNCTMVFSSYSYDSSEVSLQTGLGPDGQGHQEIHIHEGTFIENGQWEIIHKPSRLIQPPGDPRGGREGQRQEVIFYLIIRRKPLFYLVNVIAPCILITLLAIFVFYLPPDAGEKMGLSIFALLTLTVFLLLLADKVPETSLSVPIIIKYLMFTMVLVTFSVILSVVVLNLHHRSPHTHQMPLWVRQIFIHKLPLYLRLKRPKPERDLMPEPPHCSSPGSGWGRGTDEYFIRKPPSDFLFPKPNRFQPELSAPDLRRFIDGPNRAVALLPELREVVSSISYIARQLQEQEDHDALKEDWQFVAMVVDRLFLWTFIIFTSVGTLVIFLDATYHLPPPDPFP
T2 sequence (Q07001 22-517): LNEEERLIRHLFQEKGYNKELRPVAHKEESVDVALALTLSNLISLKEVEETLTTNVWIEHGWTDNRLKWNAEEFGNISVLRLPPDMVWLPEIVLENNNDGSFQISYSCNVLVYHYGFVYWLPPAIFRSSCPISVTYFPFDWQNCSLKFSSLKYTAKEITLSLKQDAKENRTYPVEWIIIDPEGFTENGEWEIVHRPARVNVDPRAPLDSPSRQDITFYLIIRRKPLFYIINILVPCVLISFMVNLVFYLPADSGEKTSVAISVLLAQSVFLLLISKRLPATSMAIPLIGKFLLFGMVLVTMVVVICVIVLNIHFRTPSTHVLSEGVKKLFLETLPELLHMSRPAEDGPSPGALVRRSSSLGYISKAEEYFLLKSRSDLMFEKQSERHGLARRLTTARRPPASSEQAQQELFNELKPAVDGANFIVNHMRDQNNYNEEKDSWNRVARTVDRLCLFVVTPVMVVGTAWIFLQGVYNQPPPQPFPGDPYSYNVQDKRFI
T1 sequence (P09483 31-630): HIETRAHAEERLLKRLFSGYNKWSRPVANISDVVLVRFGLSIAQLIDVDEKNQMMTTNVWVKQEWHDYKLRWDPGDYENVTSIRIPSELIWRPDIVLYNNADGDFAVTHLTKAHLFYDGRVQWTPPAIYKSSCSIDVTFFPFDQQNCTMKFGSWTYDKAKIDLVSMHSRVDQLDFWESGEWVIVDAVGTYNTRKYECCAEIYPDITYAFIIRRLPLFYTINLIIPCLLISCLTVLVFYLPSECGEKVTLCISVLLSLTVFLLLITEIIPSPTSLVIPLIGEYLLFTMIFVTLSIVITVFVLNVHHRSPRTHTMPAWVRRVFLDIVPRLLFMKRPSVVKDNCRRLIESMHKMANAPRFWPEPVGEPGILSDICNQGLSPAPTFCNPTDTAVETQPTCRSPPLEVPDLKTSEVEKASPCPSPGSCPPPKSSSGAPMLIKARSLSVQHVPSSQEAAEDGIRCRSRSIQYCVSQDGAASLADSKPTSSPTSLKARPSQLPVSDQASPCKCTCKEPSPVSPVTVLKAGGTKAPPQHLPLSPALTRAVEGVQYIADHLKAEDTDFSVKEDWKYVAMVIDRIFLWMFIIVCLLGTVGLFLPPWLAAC
T1 sequence (P12390 25-500): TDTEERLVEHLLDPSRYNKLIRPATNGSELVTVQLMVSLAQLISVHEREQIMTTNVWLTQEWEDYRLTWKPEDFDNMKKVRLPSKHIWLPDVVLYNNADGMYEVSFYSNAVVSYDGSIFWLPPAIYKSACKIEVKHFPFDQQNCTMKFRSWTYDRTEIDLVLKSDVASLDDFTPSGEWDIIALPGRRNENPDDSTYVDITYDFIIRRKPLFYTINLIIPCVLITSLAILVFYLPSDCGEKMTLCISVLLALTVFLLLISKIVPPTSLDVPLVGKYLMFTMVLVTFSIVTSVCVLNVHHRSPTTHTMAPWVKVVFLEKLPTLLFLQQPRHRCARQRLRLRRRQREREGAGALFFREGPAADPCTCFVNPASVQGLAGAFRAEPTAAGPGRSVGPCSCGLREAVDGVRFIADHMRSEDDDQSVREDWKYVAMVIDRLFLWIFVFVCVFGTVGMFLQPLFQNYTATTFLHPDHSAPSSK

CNCCCCc1cccnc1 [Sample No. 7, N-methyl-(3-pyridinyl)-butane-1-amine]
Ki [1]: 0.91 µM | Emax [2]: 72%

CNCCC#Cc1cccnc1 [Sample No. 4, N-Methyl-4-(3-pyridinyl)-3-butyne-1-amine]
Ki [1]: 0.058 µM | Muscle Effect ([3]; te671/rd cells): 7 % nicotine | Emax [2]: 87% | EC50 [2]: 8.35 µM | Ganglion Effect ([4]; pc12 cells): 59 % nicotine

COc1cncc(/C=C/CCN)c1 [Sample No. 3, (E)-4-[3-(5-methoxypyridin)yl] -3-butene-1-amine monofumarate]
Emax [3]: 0% | Emax [2]: 95% | EC50 [2]: 4 µM | Emax [4]: 0%

CNCC/C=C/c1cncnc1 [Sample No. 2, (E)-N-methyl-4-(5-pyrimidinyl)-3-butene-1-amine]
Emax [3]: 4% | Emax [2]: 77% | EC50 [2]: 5.8 µM | Emax [4]: 1%

CNCC/C=C/c1ccc(C)nc1 [Sample No. 6, (E)-N-methyl-4-[3-(6-methylpyrindin)yl]-3-butene-1-amine]
Emax [3]: 2% | Emax [2]: 60% | EC50 [2]: 0.219 µM | Emax [4]: 4%

CNCC/C=C\c1cccnc1 [Sample No. 5, (Z) metanicotine]
Dopamine Release Emax [2]: 88 %nicotine

NCC/C=C/c1cncnc1 [Sample No. 1, (E)-4-(5-pyrimidinyl)-3-butene-1-amine monofumarate]
Emax [2]: 113% | EC50 [2]: 4.36 µM

CN1CCC[C@H]1c1cccnc1 [Sample No. C-1, (S)-(-)-nicotine, reference compound]
Emax [2]: 100% | EC50 [2]: 0.115 µM

CNCC/C=C/c1cccnc1 [Sample No. 8, (E)-metanicotine, reference compound]
Muscle Effect [3]: 15 % nicotine | Dopamine Release Emax [2]: 80 %nicotine

Source: EP0801527B1 (priority 1995, dated 1996)
